Measured values: article PMC9225265, “Functional Analysis of the Plasma Membrane H^+-ATPases of Ustilago maydis” (Journal of Fungi, 2022)

System: T1, plasma membrane H+-ATPases of wild-type FB2 (Pma1 and Pma2)
T1 construct: native enzymes in isolated plasma membrane fraction of wild-type sporidia; both pumps present; vanadate-sensitive ATPase activity
Experiment: Pi release (Fiske-Subbarow), vanadate-sensitive ATPase activity of plasma membrane fraction, Michaelis-Menten fit
Assay type: biochemical, Mycosarcoma maydis
Details: MES pH 6.5, 5 mM MgCl2, 30 °C, ATP regenerating system (phosphoenolpyruvate / pyruvate kinase), NaN3, KNO3, Pma1 and Pma2 together, rounded value for all strains, exact value in figure

For Nc1ncnc2c1ncn2[C@@H]1O[C@H](COP(=O)(O)OP(=O)(O)OP(=O)(O)O)[C@@H](O)[C@H]1O [Mg-ATP], the Km was about 2000 µM.
